From PMC10761119, “Phosphorylation-state dependent intraneuronal sorting of Aβ differentially impairs autophagy and the endo-lysosomal system” (Autophagy, 2023)
Values belong to the substance of their own block, whether it stands above or below them.

Key:
[1] = cited from earlier work
primary cortical neurons [2] = assay: ELISA of Aβ levels in the treatment media; type: cell-based, mouse; conditions: 4 hours incubation, 500 nM, neurobasal FCS- PS- media, versus amount before incubation, n = 9, N = 3
Procedure: Primary cortical neurons (DIV14) were treated with 500 nM of monomeric/unaggregated Aβ variants ([…]β and p-[…]β) in neurobasal, FCS^- PS^- media. SH-SY5Y cells seeded on D1, were treated with Aβ variants (1 μM) on D3 in DMEM/F-12 media without serum and antibiotics. Control treatment included treatment with equal volume of 10 mM NaOH solution used for preparing the Aβ stock solutions, in respective cell culture medium. SH-SY5Y cells, after 16 h of transient expression of the reporter constructs, were treated with different Aβ variants, autophagy modulator substrates and respective controls in DMEM/F-12, FCS^- PS^- media for the mentioned time points. […] Cells were either collected by scraping using a cell-scraper or fixed with 4% PFA-PBS for 15 min at RT, for further immunocytochemistry experiments. Collected treatment media was centrifuged at 1000 g for 5 min, pellet discarded and supernatant frozen at -20°C until further usage. Plates (ThermoFisher Scientific, 44-2404-21) were coated with either […]6) or anti-pAβ antibodies ([…]11 and […]) as capture antibody at RT for 2 h and blocked with 1 mg/ml BSA solution in PBS. […] Multiple readings were recorded for a single well and averaged. In each experiment, each sample was analyzed in technical duplicate/triplicate wells as indicated and average values from an independent experiment are presented (Figures 1E, 3G, SA-D and Table S2).

primary cortical neurons [3] = assay: Western immunoblot of Aβ aggregation during incubation with neurons; type: cell-based, mouse; conditions: Aβ 500 nM, 4 h; NuPAGE and western immunoblot with 82E1; compared to npAβ or p-Ser26Aβ
Procedure: Cells were collected by scraping and mechanically homogenized in hypotonic D buffer (10 mM Tris-HCl, pH 7.4, 10 mM NaCl, 0.1 mM EGTA, 25 mM glycerol 2-phosphate, 1 mM DTT) containing protease and phosphatase inhibitors by repeated suspension through a 23 G × 1” needle. Post-nuclear supernatant (PNS) was collected by centrifugation of the mechanically homogenized cellular material at 2,000 g for 5 min. The pellet was the nuclear material. […]
For different cellular fractions prepared as described earlier, the protein content was estimated using the standard Pierce™ BCA protein assay kit (ThermoFisher Scientific, 23225). […] Blots were developed either by enhanced chemiluminescence (ECL) or fluorescence imaging. […] Signals were detected with an ECL imager (Bio-Rad, Germany). For fluorescence detection, blots were imaged on a Li-COR imaging station (Li-COR Biosciences, Germany). […] Quantification of band signals was done using ImageJ – Gel processing module or Image Studio processing software (LiCOR Biosciences, Germany). All samples were analyzed in biological duplicates in two or three independent experiments as indicated in the respective figure legends. […]

Substance: amyloid-β phosphorylated at serine residue 26 [p-Ser26Aβ]
Assemblies formed (effect of Ser26 phosphorylation) [1]: soluble oligomeric assemblies, rather than fibrillar assemblies

Levels of Aβ in the treatment media after incubation with primary neurons (primary cortical neurons [2]): significantly decreased
Substance: non-phosphorylated amyloid-β [npAβ, reference compound]

SDS resistant aggregates formed during the incubation with neurons (primary cortical neurons [3]): forms more SDS resistant aggregates
Substance: amyloid-β phosphorylated at serine residue 8 [p-Ser8Aβ]
